Laboratory results as given in ChEMBL document CHEMBL4715821, “Discovery of 4-ethoxy-7H-pyrrolo[2,3-d]pyrimidin-2-amines as potent, selective and orally bioavailable LRRK2 inhibitors” (Bioorg Med Chem Lett, 2018).

Assays:
[1] = biological target: Casein kinase I isoform gamma-3 (Homo sapiens) (UniProt Q9Y6M4); experiment: Inhibition of CK1g3 (unknown origin) assessed as residual activity at 1 uM by Kinomescan method relative to control
[2] = biological target: Serine/threonine-protein kinase pim-3 (Homo sapiens) (UniProt Q86V86); experiment: Inhibition of wild-type human partial length PIM3 (G16 to A317 residues) expressed in bacterial expression system assessed as residual activity at 1 uM by Kinomescan method relative to control
[3] = biological target: Serine/threonine-protein kinase 33 (Homo sapiens) (UniProt Q9BYT3); experiment: Inhibition of wild-type human full length STK33 (M1 to L514 residues) expressed in bacterial expression system assessed as residual activity at 1 uM by Kinomescan method relative to control
Sequence of Serine/threonine-protein kinase 33 (Homo sapiens) (Q9BYT3 whole entry, looked up, the tested form may be a part): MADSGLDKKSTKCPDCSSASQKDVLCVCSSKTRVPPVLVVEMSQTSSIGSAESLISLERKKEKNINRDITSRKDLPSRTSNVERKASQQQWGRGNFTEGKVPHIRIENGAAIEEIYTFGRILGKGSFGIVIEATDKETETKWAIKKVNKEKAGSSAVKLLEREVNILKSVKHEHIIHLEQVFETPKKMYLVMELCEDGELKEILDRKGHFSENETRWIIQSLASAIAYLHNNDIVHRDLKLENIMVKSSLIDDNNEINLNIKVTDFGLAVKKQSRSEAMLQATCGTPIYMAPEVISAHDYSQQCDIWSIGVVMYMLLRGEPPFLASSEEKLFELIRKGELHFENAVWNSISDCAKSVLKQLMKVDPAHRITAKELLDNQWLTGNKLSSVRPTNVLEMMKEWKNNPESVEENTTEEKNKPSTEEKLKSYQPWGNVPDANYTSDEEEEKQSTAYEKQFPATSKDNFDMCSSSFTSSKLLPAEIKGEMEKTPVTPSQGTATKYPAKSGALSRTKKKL

[4] = biological target: Serine/threonine-protein kinase tousled-like 2 (Homo sapiens) (UniProt Q86UE8); experiment: Inhibition of wild-type human partial length TLK2 (E424 to N749 residues) expressed in bacterial expression system assessed as residual activity at 1 uM by Kinomescan method relative to control
[5] = biological target: Muscle, skeletal receptor tyrosine-protein kinase (Homo sapiens) (UniProt O15146); experiment: Inhibition of wild-type human partial length MUSK (M553 to V869 residues) expressed in bacterial expression system assessed as residual activity at 1 uM by Kinomescan method relative to control
[6] = biological target: Mitogen-activated protein kinase kinase kinase kinase 4 (Homo sapiens) (UniProt O95819); experiment: Inhibition of wild-type human partial length MAP4K4 (M1 to R310 residues) expressed in bacterial expression system assessed as residual activity at 1 uM by Kinomescan method relative to control
[7] = In vivo inhibition of LRRK2 in Han-Wistar rat assessed as reduction in Ser935 phosphorylation in brain at 10 mg/kg, po by Western blot analysis; format: functional; parameters: scale not given: the % may be the effect or the level left
[8] = biological target: Serine/threonine-protein kinase PLK4 (Homo sapiens) (UniProt O00444); experiment: Inhibition of wild-type human partial length PLK4 (M1 to S273 residues) expressed in mammalian expression system assessed as residual activity at 1 uM by Kinomescan method relative to control
[9] = biological target: Homeodomain-interacting protein kinase 3 (Homo sapiens) (UniProt Q9H422); experiment: Inhibition of wild-type human partial length HIPK3 (M153 to N562 residues) expressed in mammalian expression system assessed as residual activity at 1 uM by Kinomescan method relative to control
[10] = In vivo inhibition of LRRK2 in Han-Wistar rat assessed as reduction in Ser935 phosphorylation in spleen at 10 to 100 mg/kg, po by Western blot analysis; format: functional; parameters: scale not given: the % may be the effect or the level left; conditions: dose 10-100 mg/kg
[11] = biological target: Serine/threonine-protein kinase Sgk1 (Homo sapiens) (UniProt O00141); experiment: Inhibition of wild-type human partial length SGK1 (I60 to L431 residues) expressed in mammalian expression system assessed as residual activity at 1 uM by Kinomescan method relative to control
[12] = biological target: Insulin receptor (Homo sapiens) (UniProt P06213); experiment: Inhibition of IR (unknown origin)assessed as residual activity at 1 uM by Kinomescan method relative to control
Sequence of Insulin receptor (Homo sapiens) (P06213 28-758 limits assumed): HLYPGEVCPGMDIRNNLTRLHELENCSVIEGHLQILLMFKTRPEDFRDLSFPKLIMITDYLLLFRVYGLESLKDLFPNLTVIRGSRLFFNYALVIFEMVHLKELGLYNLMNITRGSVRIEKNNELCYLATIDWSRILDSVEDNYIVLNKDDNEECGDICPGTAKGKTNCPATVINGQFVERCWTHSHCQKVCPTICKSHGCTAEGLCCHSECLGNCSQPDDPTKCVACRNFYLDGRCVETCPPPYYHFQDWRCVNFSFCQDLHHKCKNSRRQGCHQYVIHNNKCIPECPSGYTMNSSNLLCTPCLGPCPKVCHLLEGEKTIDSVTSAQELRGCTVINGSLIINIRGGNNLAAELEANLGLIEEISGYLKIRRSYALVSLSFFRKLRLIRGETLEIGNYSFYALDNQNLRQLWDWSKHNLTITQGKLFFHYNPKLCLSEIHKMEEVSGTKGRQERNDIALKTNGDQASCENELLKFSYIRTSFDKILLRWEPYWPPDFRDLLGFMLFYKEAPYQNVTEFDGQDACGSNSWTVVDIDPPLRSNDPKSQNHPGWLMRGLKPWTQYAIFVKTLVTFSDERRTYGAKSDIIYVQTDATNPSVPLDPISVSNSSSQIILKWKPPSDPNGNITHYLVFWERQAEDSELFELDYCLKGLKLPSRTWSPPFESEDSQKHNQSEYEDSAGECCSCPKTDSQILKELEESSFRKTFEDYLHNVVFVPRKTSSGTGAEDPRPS
Sequence of Insulin receptor (Homo sapiens) (P06213 763-1382 limits assumed): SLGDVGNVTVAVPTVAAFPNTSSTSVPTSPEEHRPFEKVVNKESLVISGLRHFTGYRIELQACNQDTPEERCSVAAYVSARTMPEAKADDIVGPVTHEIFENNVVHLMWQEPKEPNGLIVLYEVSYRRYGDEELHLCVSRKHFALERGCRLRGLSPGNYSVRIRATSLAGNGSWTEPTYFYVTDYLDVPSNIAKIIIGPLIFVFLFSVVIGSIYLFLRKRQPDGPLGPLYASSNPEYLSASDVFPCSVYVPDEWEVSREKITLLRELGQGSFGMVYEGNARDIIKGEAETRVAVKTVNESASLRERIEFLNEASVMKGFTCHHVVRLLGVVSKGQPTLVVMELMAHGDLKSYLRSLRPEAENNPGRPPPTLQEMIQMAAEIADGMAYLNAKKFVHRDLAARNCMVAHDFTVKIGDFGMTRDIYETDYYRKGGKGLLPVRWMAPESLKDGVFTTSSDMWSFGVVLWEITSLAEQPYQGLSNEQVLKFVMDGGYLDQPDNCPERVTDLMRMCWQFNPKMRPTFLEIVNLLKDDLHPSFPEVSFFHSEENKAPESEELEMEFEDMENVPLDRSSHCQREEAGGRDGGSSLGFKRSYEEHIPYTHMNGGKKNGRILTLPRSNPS

[13] = biological target: Proto-oncogene tyrosine-protein kinase Src (Homo sapiens) (UniProt P12931); experiment: Inhibition of wild-type human partial length c-Src (M1 to L450 residues) expressed in bacterial expression system assessed as residual activity at 1 uM by Kinomescan method relative to control
[14] = biological target: Death-associated protein kinase 3 (Homo sapiens) (UniProt O43293); experiment: Inhibition of wild-type human partial length DAPK3 (M1 to A277 residues) expressed in bacterial expression system assessed as residual activity at 1 uM by Kinomescan method relative to control
[15] = biological target: Proto-oncogene tyrosine-protein kinase ROS (Homo sapiens) (UniProt P08922); experiment: Inhibition of wild-type human partial length ROS1 (A1921 to N2240 residues) expressed in bacterial expression system assessed as residual activity at 1 uM by Kinomescan method relative to control
[16] = biological target: Epithelial discoidin domain-containing receptor 1 (Homo sapiens) (UniProt Q08345); experiment: Inhibition of wild-type human partial length DDR1 (R565 to V876 residues) expressed in bacterial expression system assessed as residual activity at 1 uM by Kinomescan method relative to control
[17] = biological target: Angiopoietin-1 receptor (Homo sapiens) (UniProt Q02763); experiment: Inhibition of wild-type human partial length TIE2 (N804 to T1112 residues) expressed in bacterial expression system assessed as residual activity at 1 uM by Kinomescan method relative to control
[18] = biological target: Serine/threonine-protein kinase TAO2 (Homo sapiens) (UniProt Q9UL54); experiment: Inhibition of wild-type human partial length TAOK2 (M1 to A320 residues) expressed in mammalian expression system assessed as residual activity at 1 uM by Kinomescan method relative to control
[19] = biological target: Receptor tyrosine-protein kinase erbB-4 (Homo sapiens) (UniProt Q15303); experiment: Inhibition of wild-type human partial length ERBB4 (L690 to K994 residues) expressed in bacterial expression system assessed as residual activity at 1 uM by Kinomescan method relative to control
Sequence of Receptor tyrosine-protein kinase erbB-4 (Homo sapiens) (Q15303 whole entry, the tested form may be a part): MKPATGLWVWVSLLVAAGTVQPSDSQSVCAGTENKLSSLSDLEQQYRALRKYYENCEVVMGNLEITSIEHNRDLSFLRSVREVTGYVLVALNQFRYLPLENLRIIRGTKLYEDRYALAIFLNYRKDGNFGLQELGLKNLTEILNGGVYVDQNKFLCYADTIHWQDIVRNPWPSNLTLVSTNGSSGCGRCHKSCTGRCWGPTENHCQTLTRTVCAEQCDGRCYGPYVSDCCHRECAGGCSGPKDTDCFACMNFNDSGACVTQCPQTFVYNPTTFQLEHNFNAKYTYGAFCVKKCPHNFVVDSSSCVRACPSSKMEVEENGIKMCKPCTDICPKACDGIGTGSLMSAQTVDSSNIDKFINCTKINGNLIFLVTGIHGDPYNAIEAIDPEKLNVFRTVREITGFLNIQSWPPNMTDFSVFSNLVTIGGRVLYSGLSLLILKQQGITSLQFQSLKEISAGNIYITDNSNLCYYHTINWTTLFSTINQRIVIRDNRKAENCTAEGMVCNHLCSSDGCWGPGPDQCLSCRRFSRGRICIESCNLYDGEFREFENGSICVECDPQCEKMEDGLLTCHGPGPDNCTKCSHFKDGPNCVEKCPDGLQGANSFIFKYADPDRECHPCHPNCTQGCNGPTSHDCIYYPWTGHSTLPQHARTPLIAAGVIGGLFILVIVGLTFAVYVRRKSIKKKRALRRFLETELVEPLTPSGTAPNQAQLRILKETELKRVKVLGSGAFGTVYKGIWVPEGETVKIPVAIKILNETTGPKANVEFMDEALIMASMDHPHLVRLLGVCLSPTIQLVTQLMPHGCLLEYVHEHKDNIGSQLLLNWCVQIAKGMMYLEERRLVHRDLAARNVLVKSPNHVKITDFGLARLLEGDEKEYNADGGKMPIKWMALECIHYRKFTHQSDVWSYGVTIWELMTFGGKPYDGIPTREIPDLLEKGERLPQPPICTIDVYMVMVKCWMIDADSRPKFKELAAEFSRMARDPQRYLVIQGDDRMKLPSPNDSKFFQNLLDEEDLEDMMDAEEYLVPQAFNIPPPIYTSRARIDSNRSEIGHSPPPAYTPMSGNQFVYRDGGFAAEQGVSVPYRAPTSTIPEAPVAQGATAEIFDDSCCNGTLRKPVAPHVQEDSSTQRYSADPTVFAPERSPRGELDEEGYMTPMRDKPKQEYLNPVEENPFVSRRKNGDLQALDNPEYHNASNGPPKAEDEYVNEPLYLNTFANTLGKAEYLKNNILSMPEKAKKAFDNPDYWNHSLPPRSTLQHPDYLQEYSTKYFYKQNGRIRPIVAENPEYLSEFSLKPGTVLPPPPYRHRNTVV

[20] = biological target: Hepatocyte growth factor receptor (Homo sapiens) (UniProt P08581); experiment: Inhibition of wild-type human partial length c-MET (D1010 to S1367 residues) expressed in bacterial expression system assessed as residual activity at 1 uM by Kinomescan method relative to control
Sequence of Hepatocyte growth factor receptor (Homo sapiens) (P08581 whole entry, the tested form may be a part): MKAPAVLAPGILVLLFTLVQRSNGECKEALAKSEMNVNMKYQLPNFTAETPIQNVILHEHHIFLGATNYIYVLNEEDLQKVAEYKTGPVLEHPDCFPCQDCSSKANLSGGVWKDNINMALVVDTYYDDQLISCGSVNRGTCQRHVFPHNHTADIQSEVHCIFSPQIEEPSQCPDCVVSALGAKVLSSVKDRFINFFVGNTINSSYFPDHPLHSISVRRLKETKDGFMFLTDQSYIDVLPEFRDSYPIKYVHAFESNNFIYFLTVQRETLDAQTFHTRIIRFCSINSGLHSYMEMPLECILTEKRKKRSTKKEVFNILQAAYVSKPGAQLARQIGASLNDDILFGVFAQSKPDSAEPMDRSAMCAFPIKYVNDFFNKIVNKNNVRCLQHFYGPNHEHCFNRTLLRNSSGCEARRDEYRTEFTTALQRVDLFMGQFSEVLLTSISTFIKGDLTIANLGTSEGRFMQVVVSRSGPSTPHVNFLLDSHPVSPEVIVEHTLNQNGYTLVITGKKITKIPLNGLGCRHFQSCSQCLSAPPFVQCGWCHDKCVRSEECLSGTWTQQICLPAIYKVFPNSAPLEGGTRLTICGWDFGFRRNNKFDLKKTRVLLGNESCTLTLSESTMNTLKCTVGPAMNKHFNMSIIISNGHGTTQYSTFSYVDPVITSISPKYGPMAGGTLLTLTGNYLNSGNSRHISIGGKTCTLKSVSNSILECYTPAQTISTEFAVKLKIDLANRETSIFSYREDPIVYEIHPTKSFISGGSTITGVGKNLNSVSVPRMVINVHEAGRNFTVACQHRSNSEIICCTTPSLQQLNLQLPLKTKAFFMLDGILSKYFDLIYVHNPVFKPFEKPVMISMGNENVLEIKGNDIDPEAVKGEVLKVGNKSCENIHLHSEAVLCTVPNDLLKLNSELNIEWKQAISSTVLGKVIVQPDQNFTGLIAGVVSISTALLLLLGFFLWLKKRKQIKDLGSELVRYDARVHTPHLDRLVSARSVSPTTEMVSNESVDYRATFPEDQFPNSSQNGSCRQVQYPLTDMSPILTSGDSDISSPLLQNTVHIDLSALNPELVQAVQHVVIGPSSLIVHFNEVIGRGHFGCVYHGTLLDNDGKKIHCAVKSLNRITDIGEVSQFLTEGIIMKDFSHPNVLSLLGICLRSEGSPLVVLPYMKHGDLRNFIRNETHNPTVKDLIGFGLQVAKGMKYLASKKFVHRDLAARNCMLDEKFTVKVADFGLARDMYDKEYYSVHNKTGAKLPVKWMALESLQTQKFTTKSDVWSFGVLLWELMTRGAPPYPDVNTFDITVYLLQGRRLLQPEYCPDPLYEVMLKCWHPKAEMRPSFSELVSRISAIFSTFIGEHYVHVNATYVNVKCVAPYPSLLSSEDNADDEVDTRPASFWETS

[21] = biological target: Dual specificity mitogen-activated protein kinase kinase 6 (Homo sapiens) (UniProt P52564); experiment: Inhibition of MKK6 (unknown origin) assessed as residual activity at 1 uM by Kinomescan method relative to control
[22] = biological target: Cyclin-dependent kinase 2/cyclin E1 (Homo sapiens) (UniProt P24864+P24941); experiment: Inhibition of wild-type human full length CDK2 (M1 to L298 residues)/Cyclin E expressed in bacterial expression system assessed as residual activity at 1 uM by Kinomescan method relative to control
[23] = biological target: Casein kinase I isoform gamma-1 (Homo sapiens) (UniProt Q9HCP0); experiment: Inhibition of CK1g1 (unknown origin) assessed as residual activity at 1 uM by Kinomescan method relative to control
[24] = biological target: MAP/microtubule affinity-regulating kinase 3 (Homo sapiens) (UniProt P27448); experiment: Inhibition of wild-type human full length MARK3 (M1 to L729 residues) expressed in bacterial expression system assessed as residual activity at 1 uM by Kinomescan method relative to control
[25] = biological target: Testis-specific serine/threonine-protein kinase 2 (Homo sapiens) (UniProt Q96PF2); experiment: Inhibition of TSSK2 (unknown origin) assessed as residual activity at 1 uM by Kinomescan method relative to control
[26] = biological target: CDK2/Cyclin A2 (Homo sapiens) (UniProt P24941+P20248); experiment: Inhibition of wild-type human full length CDK2 (M1 to L298 residues)/Cyclin A expressed in bacterial expression system assessed as residual activity at 1 uM by Kinomescan method relative to control
[27] = biological target: Non-receptor tyrosine-protein kinase TYK2 (Homo sapiens) (UniProt P29597); experiment: Inhibition of wild-type human partial length TYK2 expressed in mammalian expression system assessed as residual activity at 1 uM by Kinomescan method relative to control

Compound: CCOc1nc(Nc2ccc(C(=O)N3CCOCC3)cc2OC)nc2[nH]ccc12
- Activity [1]: 92.3%
- Activity [2]: 99.9%
- Activity [3]: 49.5%
- Activity [4]: 92.5%
- Activity [5]: 72.9%
- Activity [6]: 95.6%
- Activity [7]: 20%
- Activity [8]: 58.8%
- Activity [9]: 98%
- Activity [10]: 100%
- Activity [11]: 96.6%
- Activity [12]: 14.9%
- Activity [13]: 99%
- Activity [14]: 66.9%
- Activity [15]: 52.5%
- Activity [16]: 102%
- Activity [17]: 108%
- Activity [18]: 103%
- Activity [19]: 101%
- Activity [20]: 104%
- Activity [21]: 63.1%
- Activity [22]: 92.1%
- Activity [23]: 95%
- Activity [24]: 92.4%
- Activity [25]: 20.9%
- Activity [26]: 94.9%
- Activity [27]: 96.5%
